Columns and labels:
[1] = target: T1, wild type PKR (Homo sapiens, UniProt P30613); assay: PKR (wild type) enzyme AC50 assay, LDH/NADH-coupled, absorbance at 340 nm; type: biochemical; details: for AC50: Table 2, enzyme assay, read-out: PKR WT AC50; for EC50: Table 4, AC50, enzyme assay, read-out: PKR WT
In short: (§1)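 LDH/NADH coupling; 40-400 ng/well enzyme; PEP 0.1-0.5 mM, ADP 0.2-1.65 mM, NADH 180 μM, LDH 0.5 units; Tris pH 7.5/KCl/MgCl2 buffer with DTT, BSA. 60 min RT compound preincubation, ADP start, A340 at RT. 11-point 3-fold series from 100 μM.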

[2] = target: PKR K410E (Homo sapiens, UniProt P30613, K410E); assay: PKR mutant assay (K410E), AC50, LDH/NADH-coupled, absorbance at 340 nm; type: biochemical; details: for AC50: Table 2, enzyme assay; for EC50: Table 4, AC50, enzyme assay
In short: as §1

[3] = target: PKR R510Q (Homo sapiens, UniProt P30613, R510Q); assay: PKR mutant assay (R510Q), AC50, LDH/NADH-coupled, absorbance at 340 nm; type: biochemical; details: for AC50 / PK R510Q AC50: Table 2, enzyme assay; for AC50: read-out: PK R510Q AC50; for EC50: Table 4, AC50, enzyme assay, read-out: PK R510Q
In short: as §1

[4] = target: T1, wild type PKR; assay: Cell based ATP assay in purified red blood cells (Cell-Titer-Glo); design: endogenous in cells; host or cells: purified red blood cells from healthy volunteers; details: overnight at 37° C., ATP levels; for EC50: Table 4, AC50, RBCs
In short: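 ATP levels were quantified by Cell-Titer-Glo after overnight 37 °C exposure of cells to compound (1:4 dilution series, 0.1% DMSO final). The cells were human erythrocytes, filter-purified to remove leukocytes and plated at 1×10^7 cells/mL in AGAM medium.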

T1 sequence (P30613 whole entry): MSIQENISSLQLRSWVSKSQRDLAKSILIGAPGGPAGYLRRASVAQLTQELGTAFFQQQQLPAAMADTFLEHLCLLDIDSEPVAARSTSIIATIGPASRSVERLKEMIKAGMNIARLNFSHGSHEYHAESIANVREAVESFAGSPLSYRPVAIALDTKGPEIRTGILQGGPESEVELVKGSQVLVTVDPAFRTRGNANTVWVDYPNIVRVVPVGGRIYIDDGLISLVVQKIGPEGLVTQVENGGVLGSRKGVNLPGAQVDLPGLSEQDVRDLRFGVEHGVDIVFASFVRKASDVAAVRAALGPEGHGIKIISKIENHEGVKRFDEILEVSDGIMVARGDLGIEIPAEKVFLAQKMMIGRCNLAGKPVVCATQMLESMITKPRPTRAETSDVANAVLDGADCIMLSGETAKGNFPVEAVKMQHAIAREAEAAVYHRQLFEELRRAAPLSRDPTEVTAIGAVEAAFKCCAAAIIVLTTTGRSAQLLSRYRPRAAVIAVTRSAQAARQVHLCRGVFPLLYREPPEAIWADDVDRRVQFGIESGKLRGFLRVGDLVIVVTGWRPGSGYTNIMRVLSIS
PKR R510Q, sequence (P30613 whole entry R510Q): as the sequence (P30613 whole entry) above, with R510Q counted along it
PKR K410E, sequence (P30613 whole entry K410E): as the sequence (P30613 whole entry) above, with K410E counted along it

COc1cccc(Cn2ncc3c4sc(Cc5cc[nH]n5)nc4n(C)c3c2=O)c1 [Compound 144]
AC50 [1]: < 300 nM
AC50 [2]: < 300 nM
AC50 [3]: < 300 nM
AC50 ([4]; Table 2, RBCs): ≤ 1000 nM

Cn1c2nc(NCc3ccccc3)sc2c2cnn(Cc3cccc4[nH]ncc34)c(=O)c21 [Compound 149]
AC50 [1]: 301 to 800 nM
AC50 [2]: 301 to 800 nM
AC50 [3]: 301 to 800 nM
AC50 ([4]; Table 2, RBCs): > 1000 nM

Cn1c2nc(C(=O)NO)sc2c2cnn(Cc3cccc4[nH]ncc34)c(=O)c21 [Compound 138]
AC50 [1]: 301 to 800 nM
AC50 [2]: < 300 nM
AC50 [3]: 301 to 800 nM
AC50 ([4]; Table 2, RBCs): > 1000 nM

Cc1nc2c(s1)c1cnn(Cc3ccccc3O)c(=O)c1n2C [Compound 18]
AC50 [1]: 301 to 800 nM
AC50 [2]: 301 to 800 nM
AC50 [3]: < 300 nM
AC50 ([4]; Table 2, RBCs): ≤ 1000 nM

Cn1c2nc(NC(=O)Cc3cc[nH]n3)sc2c2cnn(Cc3cccc4[nH]ncc34)c(=O)c21 [Compound 180]
AC50 [1]: > 800 nM
AC50 [2]: > 800 nM
AC50 [3]: > 800 nM
AC50 ([4]; Table 2, RBCs): > 1000 nM

Cn1c2nc(Cc3cccc(C#N)c3)sc2c2cnn(Cc3cccc4[nH]ncc34)c(=O)c21 [Compound 99]
AC50 [1]: < 300 nM
AC50 [2]: 301 to 800 nM
AC50 [3]: 301 to 800 nM
AC50 ([4]; Table 2, RBCs): ≤ 1000 nM

Cn1c2nc([S+](C)[O-])sc2c2cnn(Cc3cnc(N)nc3)c(=O)c21 (stereo not drawn) [Compound 94]
AC50 [1]: > 800 nM
AC50 [2]: > 800 nM
PK R510Q AC50 [3]: No Fit
AC50 ([4]; Table 2, RBCs): > 1000 nM

CC(=O)NC(c1cc[nH]n1)c1nc2c(s1)c1cnn(Cc3cccc4[nH]ncc34)c(=O)c1n2C (stereo not drawn) [Compound 178]
AC50 [1]: > 800 nM
AC50 [2]: > 800 nM
AC50 [3]: > 800 nM
AC50 ([4]; Table 2, RBCs): > 1000 nM

Cc1nc2c(s1)c1cnn(Cc3ccc(F)cc3)c(=O)c1n2C [Compound 9]
AC50 [1]: < 300 nM
AC50 [2]: < 300 nM
AC50 [3]: < 300 nM
AC50 ([4]; Table 2, RBCs): ≤ 1000 nM

Cn1c2nc(Cc3cccc4[nH]ncc34)sc2c2cnn(Cc3cccc4[nH]ncc34)c(=O)c21 [Compound 143]
AC50 [1]: < 300 nM
AC50 [2]: < 300 nM
AC50 [3]: < 300 nM
AC50 ([4]; Table 2, RBCs): > 1000 nM

Cn1c2nc(Cc3cc[nH]n3)sc2c2cnn(CCc3cccc(N)n3)c(=O)c21 [Compound 385]
EC50 [1]: < 300 nM
EC50 [2]: < 300 nM
EC50 [3]: < 300 nM
EC50 [4]: ≤ 1000 nM

COc1cccc(Cn2ncc3c4sc(Cc5ccc(C#N)cc5)nc4n(C)c3c2=O)c1 [Compound 64]
AC50 [1]: < 300 nM
AC50 [2]: < 300 nM
AC50 [3]: < 300 nM
AC50 ([4]; Table 2, RBCs): ≤ 1000 nM

Cn1c2nc(Cn3cnnc3)sc2c2cnn(Cc3cccc4[nH]ncc34)c(=O)c21 [Compound 294]
EC50 [1]: > 800 nM
EC50 [2]: > 800 nM
EC50 [3]: 301 to 800 nM
EC50 [4]: > 1000 nM

Cn1c2nc(Cc3cn[nH]c3)sc2c2cnn(Cc3cccc4[nH]ncc34)c(=O)c21 [Compound 184]
AC50 [1]: < 300 nM
AC50 [2]: < 300 nM
AC50 [3]: < 300 nM
AC50 ([4]; Table 2, RBCs): ≤ 1000 nM

Cn1c2nc(Cc3nnco3)sc2c2cnn(Cc3cccc4[nH]ncc34)c(=O)c21 [Compound 221]
EC50 [1]: < 300 nM
EC50 [2]: < 300 nM
EC50 [3]: 301 to 800 nM
EC50 [4]: > 1000 nM

Cn1c2nc(Cc3ccccn3)sc2c2cnn(Cc3ccccc3)c(=O)c21 [Compound 263]
EC50 [1]: < 300 nM
EC50 [2]: < 300 nM
EC50 [3]: < 300 nM
EC50 [4]: ≤ 1000 nM

Cc1nc2c(s1)c1cnn(Cc3ccccc3F)c(=O)c1n2C [Compound 3]
AC50 [1]: < 300 nM
AC50 [2]: < 300 nM
AC50 [3]: < 300 nM
AC50 ([4]; Table 2, RBCs): ≤ 1000 nM

Cn1c2nc(Cc3c[nH]nn3)sc2c2cnn(Cc3ccc(OC(F)(F)F)cc3)c(=O)c21 [Compound 295]
EC50 [1]: < 300 nM
EC50 [2]: < 300 nM
EC50 [3]: < 300 nM
EC50 [4]: ≤ 1000 nM

Cn1c2nc(Cc3ccc(=O)[nH]c3)sc2c2cnn(Cc3cccc4[nH]ncc34)c(=O)c21 [Compound 174]
AC50 [1]: > 800 nM
AC50 [2]: 301 to 800 nM
AC50 [3]: > 800 nM
Cell based ATP assay AC50 ([4]; Table 2, RBCs): No Fit

Cn1c2nc(Cc3cc[nH]n3)sc2c2cnn(Cc3ccc4[nH]ncc4n3)c(=O)c21 [Compound 280]
EC50 [1]: < 300 nM
EC50 [2]: < 300 nM
EC50 [3]: < 300 nM
EC50 [4]: ≤ 1000 nM

Cn1c2nc(Oc3ccn[nH]3)sc2c2cnn(Cc3cccc(N)n3)c(=O)c21 [Compound 396]
EC50 [1]: < 300 nM
EC50 [2]: < 300 nM
EC50 [3]: < 300 nM
EC50 [4]: ≤ 1000 nM

CC(c1ccccc1)c1nc2c(s1)c1cnn(Cc3cccc4[nH]ncc34)c(=O)c1n2C (stereo not drawn) [Compound 119]
AC50 [1]: < 300 nM
AC50 [2]: < 300 nM
AC50 [3]: < 300 nM
AC50 ([4]; Table 2, RBCs): ≤ 1000 nM

Cn1ccc(CCn2ncc3c4sc(Cc5cccnc5)nc4n(C)c3c2=O)n1 [Compound 400]
EC50 [1]: > 800 nM
EC50 [2]: > 800 nM
EC50 [3]: > 800 nM
EC50 [4]: > 1000 nM

CC(=O)c1cccc(Cn2ncc3c4sc(Cc5cc[nH]n5)nc4n(C)c3c2=O)c1 [Compound 190]
EC50 [1]: < 300 nM
EC50 [2]: < 300 nM
EC50 [3]: < 300 nM
EC50 [4]: ≤ 1000 nM

Cn1c2nc(Cn3cncn3)sc2c2cnn(Cc3cccc4[nH]ncc34)c(=O)c21 [Compound 293]
EC50 [1]: < 300 nM
EC50 [2]: < 300 nM
EC50 [3]: 301 to 800 nM
EC50 [4]: ≤ 1000 nM

Cn1c2nc(Cc3cc[nH]n3)sc2c2cnn(Cc3ccc(C#N)cc3)c(=O)c21 [Compound 175]
AC50 [1]: < 300 nM
AC50 [2]: < 300 nM
AC50 [3]: < 300 nM
AC50 ([4]; Table 2, RBCs): ≤ 1000 nM

Cn1c2nc(C(C(N)=O)c3cc[nH]n3)sc2c2cnn(Cc3cccc4[nH]ncc34)c(=O)c21 (stereo not drawn) [Compound 212]
EC50 [1]: < 300 nM
EC50 [2]: < 300 nM
EC50 [3]: < 300 nM
EC50 [4]: ≤ 1000 nM

Cn1c2nc([S+](C)[O-])sc2c2cnn(Cc3ccc(C#N)cc3)c(=O)c21 (stereo not drawn) [Compound 75]
AC50 [1]: > 800 nM
AC50 [2]: > 800 nM
PK R510Q AC50 [3]: No Fit
AC50 ([4]; Table 2, RBCs): ≤ 1000 nM

Cn1c2nc(Cc3ccc(C#N)cc3)sc2c2cnn(Cc3cccc4[nH]ncc34)c(=O)c21 [Compound 93]
AC50 [1]: > 800 nM
AC50 [2]: > 800 nM
AC50 [3]: > 800 nM
AC50 ([4]; Table 2, RBCs): > 1000 nM

Cn1c2nc(Cc3ccon3)sc2c2cnn(Cc3cccc4[nH]ncc34)c(=O)c21 [Compound 166]
AC50 [1]: 301 to 800 nM
AC50 [2]: > 800 nM
AC50 [3]: 301 to 800 nM
AC50 ([4]; Table 2, RBCs): > 1000 nM

CC(=O)c1cccc(Cn2ncc3c4sc(C)nc4n(C)c3c2=O)c1 [Compound 56]
AC50 [1]: 301 to 800 nM
AC50 [2]: < 300 nM
AC50 [3]: < 300 nM
AC50 ([4]; Table 2, RBCs): > 1000 nM

Cn1cc(Cc2nc3c(s2)c2cnn(Cc4cccc5[nH]ncc45)c(=O)c2n3C)cn1 [Compound 186]
EC50 [1]: > 800 nM
EC50 [2]: > 800 nM
EC50 [3]: 301 to 800 nM
EC50 [4]: ≤ 1000 nM

O=c1c2c(cnn1Cc1ccccc1)c1sc(Cc3cc[nH]n3)nc1n2C1CC1 [Compound 408]
EC50 [1]: > 800 nM
EC50 [2]: > 800 nM
EC50 [3]: 301 to 800 nM
EC50 [4]: > 1000 nM

Cc1nc2c(s1)c1cnn(Cc3ccc4nn[nH]c4c3)c(=O)c1n2C [Compound 20]
AC50 [1]: > 800 nM
AC50 [2]: > 800 nM
AC50 [3]: > 800 nM
AC50 ([4]; Table 2, RBCs): > 1000 nM

Cn1c2nc(Cc3cc(F)[nH]n3)sc2c2cnn(Cc3cccc4[nH]ncc34)c(=O)c21 [Compound 234]
EC50 [1]: < 300 nM
EC50 [2]: < 300 nM
EC50 [3]: < 300 nM
EC50 [4]: > 1000 nM

COc1cccc(Cn2ncc3c4sc(Cc5ccc(F)cc5)nc4n(C)c3c2=O)c1 [Compound 59]
AC50 [1]: < 300 nM
AC50 [2]: < 300 nM
AC50 [3]: < 300 nM
AC50 ([4]; Table 2, RBCs): ≤ 1000 nM

Source: patent US11957680B2, “Pyruvate kinase activators for use in treating blood disorders” (Agios Pharmaceuticals, Inc., priority 2017, dated 2024)
